Assay results as given in ChEMBL document CHEMBL1944591, “Synthesis and biological evaluation of quinazoline and quinoline bearing 2,2,6,6-tetramethylpiperidine-N-oxyl as potential epidermal growth factor receptor(EGFR) tyrosine kinase inhibitors and EPR bio-probe agents” (Eur J Med Chem, 2012).

Tests used:
[1] = biological target: T1, Epidermal growth factor receptor (Homo sapiens, UniProt P00533); assay: Inhibition of EGFR after 50 mins by HTRF assay
A-431 [2] = assay: Cytotoxicity against human A431 cells after 72 hrs by MTT assay; assay type: functional, cell-based
[3] = biological target: T1, Epidermal growth factor receptor; conditions: at 10 µM
A-431 [4] = assay: Cytotoxicity against human A431 cells at 300 uM after 72 hrs by MTT assay; assay type: functional; conditions: A-431, 72 h
A-431 [5] = assay: Cellular uptake in human A431 cells after 8 hrs by EPR spectroscopy; assay type: ADME, cell-based; conditions: a-431, 8 h

T1 sequence (P00533 whole entry): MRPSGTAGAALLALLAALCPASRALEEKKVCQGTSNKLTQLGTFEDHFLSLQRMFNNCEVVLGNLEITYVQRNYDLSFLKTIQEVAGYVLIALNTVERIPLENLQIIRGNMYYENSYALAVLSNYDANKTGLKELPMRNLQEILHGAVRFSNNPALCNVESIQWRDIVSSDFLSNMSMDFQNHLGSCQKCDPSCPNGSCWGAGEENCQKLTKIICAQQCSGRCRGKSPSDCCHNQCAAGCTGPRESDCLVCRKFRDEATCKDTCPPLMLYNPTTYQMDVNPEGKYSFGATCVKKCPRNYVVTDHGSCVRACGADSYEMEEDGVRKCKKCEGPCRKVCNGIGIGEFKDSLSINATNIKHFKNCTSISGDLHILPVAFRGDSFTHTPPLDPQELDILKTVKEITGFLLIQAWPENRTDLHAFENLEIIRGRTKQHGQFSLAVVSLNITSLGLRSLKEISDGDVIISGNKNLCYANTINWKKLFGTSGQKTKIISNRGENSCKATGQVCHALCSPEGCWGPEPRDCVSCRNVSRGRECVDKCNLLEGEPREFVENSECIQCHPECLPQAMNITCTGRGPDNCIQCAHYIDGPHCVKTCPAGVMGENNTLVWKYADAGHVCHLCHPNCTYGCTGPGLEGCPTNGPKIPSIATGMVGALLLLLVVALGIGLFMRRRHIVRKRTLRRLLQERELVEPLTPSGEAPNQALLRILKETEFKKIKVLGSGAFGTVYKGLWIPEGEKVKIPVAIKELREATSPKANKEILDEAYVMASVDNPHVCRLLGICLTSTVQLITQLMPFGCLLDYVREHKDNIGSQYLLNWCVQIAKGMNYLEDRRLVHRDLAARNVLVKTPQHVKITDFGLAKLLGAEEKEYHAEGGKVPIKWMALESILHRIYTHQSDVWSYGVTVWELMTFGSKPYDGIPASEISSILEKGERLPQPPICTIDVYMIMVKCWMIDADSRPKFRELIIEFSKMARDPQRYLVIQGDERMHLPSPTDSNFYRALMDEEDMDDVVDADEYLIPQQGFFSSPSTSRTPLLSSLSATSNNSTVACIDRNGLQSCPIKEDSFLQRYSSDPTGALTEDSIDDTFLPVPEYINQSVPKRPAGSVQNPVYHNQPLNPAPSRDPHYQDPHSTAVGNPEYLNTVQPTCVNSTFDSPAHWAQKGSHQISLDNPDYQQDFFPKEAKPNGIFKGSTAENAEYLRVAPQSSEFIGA

SMILES	IC50 [1]	IC50 (A-431 [2]; Homo sapiens, A-431, 72 h)	inhibition [3]	inhibition at 300 µM (A-431 [4])	Drug uptake (A-431 [5])	IC50 (A-431 [2]; a-431)
CC1(C)CC(C(=O)Nc2ccc3ncnc(Nc4cccc(Cl)c4)c3c2)CC(C)(C)N1[O]	0.065 µM	26.9 µM	99.4%	–	–	–
CC1(C)CCCC(C)(C)N1[O]	–	> 300 µM	–	< 50%	–	–
COc1cc2ncc(C(=O)NC3CC(C)(C)N([O])C(C)(C)C3)c(Nc3cccc(Br)c3)c2cc1OC	0.342 µM	43.2 µM	90.3%	–	–	–
Nc1ccc2ncnc(Nc3ccc(F)c(Cl)c3)c2c1	0.029 µM	–	99.5%	–	–	–
COc1cc2ncc(C(=O)O)c(Nc3ccc(F)c(Cl)c3)c2cc1OC	9.28 µM	88.8 µM	66.5%	–	–	–
CC1(C)CC(C(=O)Nc2ccc3ncnc(Nc4ccc(F)c(Cl)c4)c3c2)CC(C)(C)N1[O]	0.015 µM	24.7 µM	99.5%	–	Active	–
Nc1ccc2ncnc(Nc3cccc(Br)c3)c2c1	–	34.9 µM	–	–	–	–
COc1cc2ncc(C(=O)O)c(Nc3cccc(Br)c3)c2cc1OC	8.72 µM	94 µM	60.1%	–	–	–
COc1cc2ncc(C(=O)NC3CC(C)(C)N([O])C(C)(C)C3)c(Nc3ccc(F)c(Cl)c3)c2cc1OC	0.422 µM	38.1 µM	92.8%	–	Active	–
COc1cc2ncc(C(=O)NC3CC(C)(C)N([O])C(C)(C)C3)c(Nc3cccc(Cl)c3)c2cc1OC	0.623 µM	45.5 µM	88.3%	–	–	–
Nc1ccc2ncnc(Nc3cccc(Cl)c3)c2c1	–	–	98.9%	–	–	31.9 µM
CC1(C)CC(C(=O)Nc2ccc3ncnc(Nc4cccc(Br)c4)c3c2)CC(C)(C)N1[O]	0.031 µM	27.4 µM	99.4%	–	–	–
COc1cc2ncc(C(=O)O)c(Nc3cccc(Cl)c3)c2cc1OC	–	97.9 µM	–	–	–	–
